Test results: patent US8623859B2, “Bradykinin B1 antagonists” (Evotec AG, priority 2008, dated 2014)
Where a name gives a salt, the structure may show the parent alone.

The molecules below were run against T1, human B1 (Homo sapiens, UniProt P46663) (assay: Calcium flux assay for Bradykinin B1 antagonist, CHO-K1 cell line expressing human B1). Details: CHO-K1 cells expressing human B1, agonist Lys-(Des-Arg)-Bradykinin, read-out: Potency (IC50 value against human B1).
T1 construct: host or cells: CHO-K1
T1 sequence (P46663 1-353): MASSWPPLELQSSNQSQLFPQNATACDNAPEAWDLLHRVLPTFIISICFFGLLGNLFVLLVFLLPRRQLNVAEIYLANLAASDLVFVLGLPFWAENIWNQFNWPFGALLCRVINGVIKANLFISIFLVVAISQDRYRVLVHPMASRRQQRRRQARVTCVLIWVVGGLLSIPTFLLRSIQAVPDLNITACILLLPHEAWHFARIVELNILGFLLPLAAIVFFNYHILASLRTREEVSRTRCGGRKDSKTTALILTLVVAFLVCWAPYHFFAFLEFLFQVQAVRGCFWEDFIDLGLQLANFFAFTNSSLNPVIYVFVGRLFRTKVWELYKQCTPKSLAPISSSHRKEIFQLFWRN
Format: cell-based
Outline: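 CHO-K1 cells expressing human B1, loaded with 5 μM Fluo-4AM (2 h, 37° C) in HEPES buffer pH 7.4 with probenecid and 0.1% BSA, were preincubated 30 min at 25° C with compound (8 concentrations, triplicate, 1% DMSO) before B1 agonist addition. Ca2+ fluorescence monitored at 538 nm; background-normalized integrated values plotted against log antagonist concentration.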

| SMILES | IC50 |
| --- | --- |
| COc1cc(C)c(S(=O)(=O)N(Cc2nc(C(=O)N3CCC(c4ccncc4)CC3)co2)C2CC2)c(C)c1 [Ex 231, N-Cyclopropyl-4-methoxy-2,6-dimethyl-N-({4-[(4-pyridin-4-ylpiperidin-1-yl)carbonyl]-1,3-oxazol-2-yl}methyl)benzenesulfonamide] | 10 to 100 nM |
| COc1cc(C)c(S(=O)(=O)N(Cc2nc(C(=O)N3CCN(Cc4ccncc4F)CC3)co2)C2CC2)c(C)c1 [Ex 232, N-Cyclopropyl-N-{[4-({4-[(3-fluoropyridin-4-yl)methyl]piperazin-1-yl}carbonyl)-1,3-oxazol-2-yl]methyl}-4-methoxy-2,6-dimethylbenzenesulfonamide trifluoroacetate] | 100 to 1000 nM |
| COc1cc(C)c(S(=O)(=O)N(Cc2nc(C(=O)N3CCN(Cc4c(Cl)cncc4Cl)CC3)co2)C2CC2)c(C)c1 [Ex 233, N-Cyclopropyl-N-{[4-({4-[(3,5-dichloropyridin-4-yl)methyl]piperazin-1-yl}carbonyl)-1,3-oxazol-2-yl]methyl}-4-methoxy-2,6-dimethylbenzenesulfonamide trifluoroacetate] | 10 to 100 nM |
| COc1cc(C)c(S(=O)(=O)N(Cc2nc(C(=O)N3CCN(Cc4ccc(F)nc4)CC3)co2)C2CC2)c(C)c1 [Ex 234, N-Cyclopropyl-N-{[4-({4-[(6-fluoropyridin-3-yl)methyl]piperazin-1-yl}carbonyl)-1,3-oxazol-2-yl]methyl}-4-methoxy-2,6-dimethylbenzenesulfonamide trifluoroacetate] | 100 to 1000 nM |
| COc1cc(C)c(S(=O)(=O)N(Cc2nc(C(=O)N3CCN(Cc4ccc(OC)nc4)CC3)co2)C2CC2)c(C)c1 [Ex 235, N-Cyclopropyl-4-methoxy-N-{[4-({4-[(6-methoxypyridin-3-yl)methyl]piperazin-1-yl}carbonyl)-1,3-oxazol-2-yl]methyl}-2,6-dimethylbenzenesulfonamide trifluoroacetate] | < 10 nM |
| COc1cc(C)c(S(=O)(=O)N(Cc2nc(C(=O)N3CCN(Cc4ccc(C(F)(F)F)nc4)CC3)co2)C2CC2)c(C)c1 [Ex 236, N-Cyclopropyl-4-methoxy-2,6-dimethyl-N-({4-[(4-{[6-(trifluoromethyl)pyridin-3-yl]methyl}piperazin-1-yl)carbonyl]-1,3-oxazol-2-yl}methyl)benzenesulfonamide trifluoroacetate] | 10 to 100 nM |
| COc1cc(C)c(S(=O)(=O)N(Cc2nc(C(=O)N3CCN(Cc4ccc(N5CCCC5)nc4)CC3)co2)C2CC2)c(C)c1 [Ex 237, N-Cyclopropyl-4-methoxy-2,6-dimethyl-N-{[4-({4-[(6-pyrrolidin-1-ylpyridin-3-yl)methyl]piperazin-1-yl}carbonyl)-1,3-oxazol-2-yl]methyl}benzenesulfonamide trifluoroacetate] | < 10 nM |
| COc1cc(C)c(S(=O)(=O)N(Cc2nc(C(=O)N3CCN(CC4CCN(C(=O)OC(C)(C)C)CC4)CC3)co2)C2CC2)c(C)c1 [Ex 238, trifluoroacetate] | 100 to 1000 nM |
| COc1cc(C)c(S(=O)(=O)N(Cc2nc(C(=O)N3CCC(C4CCNCC4)CC3)co2)C2CC2)c(C)c1 [Ex 239, N-{[4-(4,4′-Bipiperidin-1-ylcarbonyl)-1,3-oxazol-2-yl]methyl}-N-cyclopropyl-4-methoxy-2,6-dimethylbenzenesulfonamide trifluoroacetate] | 100 to 1000 nM |
| COc1cc(C)c(S(=O)(=O)N(Cc2nc(C(=O)N3CCC(O)(/C=C/c4cccnc4)CC3)co2)C2CC2)c(C)c1 [Ex 240, N-Cyclopropyl-N-{[4-({4-hydroxy-4-[(E)-2-pyridin-3-ylethenyl]piperidin-1-yl}carbonyl)-1,3-oxazol-2-yl]methyl}-4-methoxy-2,6-dimethylbenzenesulfonamide trifluoroacetate] | 10 to 100 nM |
| COc1cc(C)c(S(=O)(=O)N(Cc2nc(C(=O)N3CCC(O)(/C=C/c4ccncc4)CC3)co2)C2CC2)c(C)c1 [Ex 241, N-Cyclopropyl-N-{[4-({4-hydroxy-4-[(E)-2-pyridin-4-ylethenyl]piperidin-1-yl}carbonyl)-1,3-oxazol-2-yl]methyl}-4-methoxy-2,6-dimethylbenzenesulfonamide trifluoroacetate] | 10 to 100 nM |
| CCN1CCN(CCCNC(=O)c2coc(CN(C3CC3)S(=O)(=O)c3c(C)cc(OC)cc3C)n2)CC1 [Ex 242, 2-({Cyclopropyl[(4-methoxy-2,6-dimethylphenyl)sulfonyl]amino}methyl)-N-[3-(4-ethylpiperazin-1-yl)propyl]-1,3-oxazole-4-carboxamide trifluoroacetate] | 10 to 100 nM |
| COc1cc(C)c(S(=O)(=O)N(Cc2nc(C(=O)N(C)C3CCC(N4CCN(C)CC4)CC3)co2)C2CC2)c(C)c1 (stereo not shown) [Ex 243, 2-({Cyclopropyl[(4-methoxy-2,6-dimethylphenyl)sulfonyl]amino}methyl)-N-methyl-N-[4-(4-methylpiperazin-1-yl)cyclohexyl]-1,3-oxazole-4-carboxamide trifluoroacetate] | 10 to 100 nM |
| COc1cc(C)c(S(=O)(=O)N(Cc2nc(C(=O)N(C)C3CCCC(N4CCN(C)CC4)C3)co2)C2CC2)c(C)c1 (stereo not shown) [Ex 244, 2-({Cyclopropyl[(4-methoxy-2,6-dimethylphenyl)sulfonyl]amino}methyl)-N-methyl-N-[3-(4-methylpiperazin-1-yl)cyclohexyl]-1,3-oxazole-4-carboxamide] | < 10 nM |
| COc1cc(C)c(S(=O)(=O)N(Cc2cnc(C(=O)N3CCN(CC4CCN(C)CC4)CC3)o2)C2CC2)c(C)c1 [Ex 245, N-Cyclopropyl-4-methoxy-2,6-dimethyl-N-{[2-({4-[(1-methylpiperidin-4-yl)methyl]piperazin-1-yl}carbonyl)-1,3-oxazol-5-yl]methyl}benzenesulfonamide] | 100 to 1000 nM |
| COc1cc(C)c(S(=O)(=O)N(Cc2nc(C(=O)N3CCC(O)(COCCN(C)C)CC3)co2)C2CC2)c(C)c1 [Ex 246, N-Cyclopropyl-N-({4-[(4-{[2-(dimethylamino)ethoxy]methyl}-4-hydroxypiperidin-1-yl)carbonyl]-1,3-oxazol-2-yl}methyl)-4-methoxy-2,6-dimethylbenzenesulfonamide trifluoroacetate] | 10 to 100 nM |
| COc1cc(C)c(S(=O)(=O)N(Cc2nc(C(=O)N3CCC(OC4CCN(C)C4)CC3)co2)C2CC2)c(C)c1 (stereo not shown) [Ex 247, N-Cyclopropyl-4-methoxy-2,6-dimethyl-N-{[4-({4-[(1-methylpyrrolidin-3-yl)oxy]piperidin-1-yl}carbonyl)-1,3-oxazol-2-yl]methyl}benzenesulfonamide] | 100 to 1000 nM |
| COc1cc(C)c(S(=O)(=O)N(Cc2nc(C(=O)N3CCC(OC4CCCN(C)C4)CC3)co2)C2CC2)c(C)c1 (stereo not shown) [Ex 248, N-Cyclopropyl-4-methoxy-2,6-dimethyl-N-{[4-({4-[(1-methylpiperidin-3-yl)oxy]piperidin-1-yl}carbonyl)-1,3-oxazol-2-yl]methyl}benzenesulfonamide trifluoroacetate] | 10 to 100 nM |
| COc1cc(C)c(S(=O)(=O)N(Cc2nc(C(=O)N3CCN(Cc4c[nH]cn4)CC3)co2)C2CC2)c(C)c1 [Ex 249, N-Cyclopropyl-N-[(4-{[4-(1H-imidazol-4-ylmethyl)piperazin-1-yl]carbonyl}-1,3-oxazol-2-yl)methyl]-4-methoxy-2,6-dimethylbenzenesulfonamide] | 10 to 100 nM |
| COc1cc(C)c(S(=O)(=O)N(Cc2nc(C(=O)N3CCN(Cc4c[nH]c(C)n4)CC3)co2)C2CC2)c(C)c1 [Ex 250, N-Cyclopropyl-4-methoxy-2,6-dimethyl-N-{[4-({4-[(2-methyl-1H-imidazol-4-yl)methyl]piperazin-1-yl}carbonyl)-1,3-oxazol-2-yl]methyl}benzenesulfonamide] | < 10 nM |
| COc1cc(C)c(S(=O)(=O)N(Cc2nc(C(=O)N3CCN(Cc4cncn4C)CC3)co2)C2CC2)c(C)c1 [Ex 251, N-Cyclopropyl-4-methoxy-2,6-dimethyl-N-{[4-({4-[(1-methyl-1H-imidazol-5-yl)methyl]piperazin-1-yl}carbonyl)-1,3-oxazol-2-yl]methyl}benzenesulfonamide] | 100 to 1000 nM |
| COc1cc(C)c(S(=O)(=O)N(Cc2nc(C(=O)N3CCN(Cc4ccnc(C)c4)CC3)co2)C2CC2)c(C)c1 [Ex 252, N-Cyclopropyl-4-methoxy-2,6-dimethyl-N-{[4-({4-[(2-methylpyridin-4-yl)methyl]piperazin-1-yl}carbonyl)-1,3-oxazol-2-yl]methyl}benzenesulfonamide] | < 10 nM |
| COc1cc(C)c(S(=O)(=O)N(Cc2nc(C(=O)N3CCN(Cc4cccnc4N)CC3)co2)C2CC2)c(C)c1 [Ex 253, N-{[4-({4-[(2-Aminopyridin-3-yl)methyl]piperazin-1-yl}carbonyl)-1,3-oxazol-2-yl]methyl}-N-cyclopropyl-4-methoxy-2,6-dimethylbenzenesulfonamide] | < 10 nM |
| COc1cc(C)c(S(=O)(=O)N(Cc2nc(C(=O)N3CCN(Cc4cnc5ccccc5c4)CC3)co2)C2CC2)c(C)c1 [Ex 254, N-Cyclopropyl-4-methoxy-2,6-dimethyl-N-[(4-{[4-(quinolin-3-ylmethyl)piperazin-1-yl]carbonyl}-1,3-oxazol-2-yl)methyl]benzenesulfonamide] | < 10 nM |
| COc1cc(C)c(S(=O)(=O)N(Cc2nc(C(=O)N3CCN(Cc4c[nH]nc4C)CC3)co2)C2CC2)c(C)c1 [Ex 255, N-Cyclopropyl-4-methoxy-2,6-dimethyl-N-{[4-({4-[(3-methyl-1H-pyrazol-4-yl)methyl]piperazin-1-yl}carbonyl)-1,3-oxazol-2-yl]methyl}benzenesulfonamide] | 10 to 100 nM |
